Data taken from patent US20130030055A1, “COMPOSITIONS AND METHODS FOR TREATING HAIR LOSS, HAIR THINNING, AND HAIR COLOR LOSS” (priority 2010, published 2013).

How the values were obtained:
Type in all cases: in vivo, human
[1] = tested on: eyelashes; assay: Open-label study of bimatoprost 0.03% on eyelid lash line: photographic Global Eyelash Assessment (GEA)
Procedure: To assess the safety, efficacy, and subjective experience of using dermal application of bimatoprost 0.03% for the growth of natural eyelashes and as described herein hair in at least one eyebrow region, a prospective, open-label study of subjects who desired longer, thicker (fuller), and darker natural eyelashes was conducted.
This was a prospective, open-label study of subjects who wanted to grow more prominent eyelashes. […] The protocol was in compliance with the Declaration of Helsinki and in accordance with applicable Institutional Review Board regulations approved Aug. 28, 2005. Study subjects gave informed consent prior to initiation of any study-related procedures.
(§1) Subjects were instructed to apply bimatoprost 0.03% to the eyelid lash line once daily for 12 weeks using an applicator (Studio Basics Professional Tools Eye Applicators, Paris Presents Incorporated, Gumee, Ill.) for each upper eyelid each evening and, if necessary, to wipe the areas immediately around the eyelid afterward to remove excess medication. Periodic use of artificial tears was allowed, but only prior to administration of bimatoprost 0.03%.
Photographic Documentation and Analysis. Frontal-(with eyes open) and side-view photographs were taken of the subjects' eyes at each visit; frontal-view images with eyes closed were taken starting at week 1. The photographic assessment planned as a primary a priori endpoint was a dynamic measure assessing change at each visit from baseline photos. The dynamic scale of global change in increased length, thickness, pigmentation, and number of lashes was +0=no change, +½=little change, +1=mild noticeable change, +2=moderate notable change, and +3=major very notable change. A static photographic assessment was calculated. Photographs from subjects who had frontal eyes-closed images available from weeks 1 and 12 were evaluated in a post hoc analysis and scored independently by 2 raters using a validated Global Eyelash Assessment (GEA) scale, designed to objectively evaluate the quality of a subject's eyelashes. One evaluator was a physician and the other was a health outcomes researcher employed by the study sponsor. In this clinician-graded assessment, overall eyelash prominence was rated on a scale from 1 (minimal) to 4 (very marked). The two independently assessed scores for each photograph (1 from each evaluator) were averaged and the change from week 1 was calculated for each patient.
Statistical Analyses. A 2-sided paired t-test was used to evaluate the intraocular pressure change from baseline, and the GEA change from week 1 to week 12 was compared using a Wilcoxon signed-rank test. Analysis of intraocular pressure was performed on a per-eye and per-subject basis. A significance level of 0.05 was used for all statistical tests. Categorical variables were summarized with frequency, count, and percentages.

[2] = tested on: eyelashes; assay: Randomized vehicle-controlled study: overall eyelash prominence by GEA scale; details: week 16; ITT; 0.03% solution once daily to upper eyelid margins (107/137); p<0.0001 vs vehicle
Procedure: The objective of this study was to evaluate the safety and efficacy of bimatoprost 0.03% solution once daily compared with vehicle in increasing overall eyelash prominence following dermal administration to the upper eyelid margins.
During the screening visit, each subject was assessed for inclusion/exclusion criteria. Qualifying subjects were randomly allocated in a 1:1 ratio to treatment with bimatoprost 0.03% solution or vehicle, to be applied to both upper eyelid margins once daily in the evening for 4 months.
Subjects applied study medication to the upper eyelid margins using the supplied, disposable, single-use-per-eye applicator once daily in the evening for 4 months. Subjects were instructed to dab or blot any excess study medication runoff on the area outside the upper eyelash margin with a tissue or other absorbent cloth; the upper lid margin was to feel evenly and lightly moist without runoff. Subjects were instructed not to apply study medication to the lower eyelash line. […]
For the primary efficacy endpoint, a clinical response was defined as at least a 1-grade increase in the GEA score from baseline at month 4 (week 16). […] The proportion of subjects with at least a 1-grade increase from baseline was summarized by a frequency table and analyzed by the Pearson's chi-square test for 2-by-2 tables at each visit. […]

[3] = tested on: eyebrows; assay: Eyebrow growth after chemotherapy-induced eyebrow loss (Example 3); details: person, eyebrows lost after chemotherapy
Text: A person participates in a clinical study for eyebrow growth. The patient has lost both their eyebrows as a result of recent treatments of chemotherapy. Bimatoprost 0.03% is applied along the eyebrow line of both eyes. After approximately 4 weeks, the person begins to experience eyebrow growth. […] The person is extremely satisfied with the results and no longer needs to apply make-up in place of real eyebrows.

[4] = Open-label study: adverse events, periorbital darkening, biomicroscopy
Text: as §1
Clinical Examinations. Assessments were conducted at baseline and at weekly study visits at weeks 1, 4, 8, 12 (end of treatment period), and 16 (post-treatment follow-up period). At each visit, subjects underwent a complete eye examination by an ophthalmologist that included intraocular pressure measurements, visual acuity, and biomicroscopy. Subjects were queried at each visit for adverse events and these were recorded by the investigator. The presence of periorbital darkening was noted and graded on a scale of 0 to 4, and adverse event data were collected at each visit during the treatment period.
Health Outcomes Questionnaires. A questionnaire was used to track adverse events and to assess the subjects' satisfaction with treatment and their subjective evaluation of their eyelashes' appearance. Subjects were asked to answer all questions and return the questionnaire at weeks 4, 8, and 12. Subjects were also asked to respond verbally to 2 additional questions and their responses were recorded by site staff (FIGS. 1-4).

Structure (SMILES): CCNC(=O)CCC/C=C\C[C@@H]1[C@@H](/C=C/[C@@H](O)CCc2ccccc2)[C@H](O)C[C@@H]1O [bimatoprost]
- Mean GEA score at week 1 ([1]; 17 subjects with week-1 GEA scores of 1 or 2): 1.88±0.33
- Mean increase in GEA score at week 12 ([1]; 17 subjects with week-1 GEA scores of 1 or 2, P<0.0001): 1.41±0.44
- Mean change in GEA score from week 1 to week 12 ([1]; all 19 subjects, P<0.0001): 1.37±0.44
- Mean week-1 GEA score ([1]; all 19 subjects, scale 1 to 4): 2.0±0.47
- Subjects rated GEA 2 (moderate) ([1]; week 1 (15/19)): 79.0%
- Subjects rated GEA 3 (marked) or higher ([1]; week 12 (18/19)): 94.7%
- Subjects with at least a 1-grade increase from baseline in overall eyelash prominence (GEA scale) [2]: 78.1%
- Eyebrow outcome following the study [3]: full, long eyebrows
- Time until eyebrow growth begins ([3]; applied along eyebrow line of both eyes): approximately 4 weeks
- Subjects Reported (n): Eye redness ([4]; Week 1 (n = 24)): 2
- Subjects Reported (n): Periorbital pigmentation changes ([4]; Week 1 (n = 24)): 0
- Subjects Reported (n): Possible brown eye shadow effect ([4]; Week 1 (n = 24)): 1
- Subjects Reported (n): Burning ([4]; Week 4 (n = 27)): 1
- Subjects Reported (n): Dryness and tightness ([4]; Week 4 (n = 27)): 1
- Subjects Reported (n): Eye redness ([4]; Week 4 (n = 27)): 4
- Subjects Reported (n): Mild itchiness ([4]; Week 4 (n = 27)): 3
- Subjects Reported (n): Periorbital pigmentation changes ([4]; Week 4 (n = 27)): 3
- Subjects Reported (n): Periorbital redness ([4]; Week 4 (n = 27)): 1
- Subjects Reported (n): Burning ([4]; Week 8 (n = 20)): 2
- Subjects Reported (n): Mild itchiness ([4]; Week 8 (n = 20)): 2
- Subjects Reported (n): Periorbital pigmentation changes ([4]; Week 8 (n = 20)): 1
- Subjects Reported (n): Redness and dryness ([4]; Week 8 (n = 20)): 1
- Subjects Reported (n): Dryness and darkening ([4]; Week 12 (n = 23)): 1
- Subjects Reported (n): Eye redness ([4]; Week 12 (n = 23)): 1
- Subjects Reported (n): Eyelid redness ([4]; Week 12 (n = 23)): 1
- Subjects Reported (n): Itching ([4]; Week 12 (n = 23)): 1
- Subjects Reported (n): Periorbital pigmentation changes ([4]; Week 12 (n = 23)): 3
- Subjects Reported (n): Red and sore ([4]; Week 12 (n = 23)): 1
- Hyperemia on biomicroscopy examination ([4]; any subject at any visit): not observed
- Subjects with periorbital darkening ([4]; during the course of the study, 28 subjects): 18%
- Subjects whose pigmentation changes were noted as possible, slight or a little ([4]; of 28 subjects): 11%
- Serious or unexpected adverse events ([4]; whole study): no serious or unexpected adverse events
